Test system: Palmitoyl CoA oxidation in rat heart mitochondria
Experiment: Palmitoyl CoA oxidation assay (mitochondrial assay, Example 16)
Format: biochemical
Conditions: 16 microM 1-C14 palmitoyl CoA, 15 min at 30° C., read-out: IC value, Palmitoyl CoA oxidation
Description: Rat heart mitochondria are isolated by the method of Nedergard and Cannon (Methods in Enzymol. 55, 3, 1979).
Palmitoyl CoA oxidation—The Palmityl CoA oxidation is carried out in a total volume of 100 micro liters containing the following agents: 110 mM KCl, 33 mM Tris buffer at pH 8, 2 mM KPi, 2 mM MgCl2, 0.1 mM EDTA, 14.7 microM defatted BSA, 0.5 mM malic acid, 13 mM carnitine, 1 mM ADP, 52 micrograms of mitochondrial protein, and 16 microM 1-C14 palmitoyl CoA (Sp. Activity 60 mCi/mmole; 20 microCi/ml, using 5 microliters per assay). The compounds of this invention are added in a DMSO solution at the following concentrations: 100 micro molar, 30 micro molar, and 3 micro molar. In each assay, a DMSO control is used. After 15 min at 30° C., the enzymatic reaction is centrifuged (20,000 g for 1 min), and 70 microliters of the supernatant is added to an activated reverse phase silicic acid column (approximately 0.5 ml of silicic acid). The column is eluted with 2 ml of water, and 0.5 ml of the eluent is used for scintillation counting to determine the amount of C^14 trapped as C^14 bicarbonate ion.

- IC50: 2.6 µM
Substance: {(3S)-4-[(2R)-2-hydroxy-3-(2-methylbenzothiazol-5-yloxy)propyl]-3-methylpiperazinyl}-N-(9-ethylcarbazol-3-yl)carboxamide
